Source: publication PMC12916490 (Molecular Psychiatry, 2025)
Like-named read-outs stand apart in the source and are kept apart here.

Columns and labels:
mice = system: mice; design: method as in ref 20 (Halberstadt et al. 2020); conditions: ref 20 (Halberstadt et al. 2020), cited from earlier work; for HTR in mice ED50 (95% CI): i.p.
h5-HT2A = h5-HT2A (Homo sapiens, UniProt P28223); test: biochemical; assay type: binding; design: expressed in transfected cells; host or cells: HEK 293 cells (membrane preparation)
Chain of h5-HT2A (P28223 whole entry, looked up): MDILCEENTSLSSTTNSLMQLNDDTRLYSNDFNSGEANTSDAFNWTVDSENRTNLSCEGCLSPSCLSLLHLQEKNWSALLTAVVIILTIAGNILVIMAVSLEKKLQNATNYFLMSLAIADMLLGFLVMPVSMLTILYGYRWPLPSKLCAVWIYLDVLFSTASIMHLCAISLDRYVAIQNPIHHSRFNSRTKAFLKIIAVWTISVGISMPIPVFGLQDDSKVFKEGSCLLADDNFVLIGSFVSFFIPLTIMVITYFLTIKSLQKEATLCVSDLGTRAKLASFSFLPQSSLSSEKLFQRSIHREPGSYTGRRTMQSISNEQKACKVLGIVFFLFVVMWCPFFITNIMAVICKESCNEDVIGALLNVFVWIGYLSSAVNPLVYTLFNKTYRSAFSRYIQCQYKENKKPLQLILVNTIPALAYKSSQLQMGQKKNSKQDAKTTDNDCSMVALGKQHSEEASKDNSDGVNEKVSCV

C57BL/6 J mice [1] = test: Head-twitch response (HTR) dose-response in mice, 30-min session; assay type: in vivo, mouse; conditions: for HTR (count/30 min): mean ± SEM; for ED50: Mus musculus, sc, 0.5 h, read-out: HTR in mice ED50 (95% CI), ascending phase of dose-response curve
Description: (§1) Behavioral studies were conducted as previously described with minor modifications. Male C57BL/6 J mice (The Jackson Laboratory #000664, 24 mice/drug) were purchased at 8 weeks old, group housed for acclimation (3–5 per cage for 1–2 weeks) under a 12:12 light:dark cycle (07:00 local time = lights on), with ad libitum access to food and water at the NIDA IRP facilities in Baltimore, MD, USA. All experiments were approved by the NIDA IRP Animal Care and Use Committee. After acclimation to the vivarium facilities, each mouse was briefly anesthetized with isoflurane and a temperature transponder (14 × 2 mm, model IPTT-300, Bio Medic Data Systems, Inc., Seaford, DE, USA) was implanted subcutaneously (s.c.) on the back, posterior to the shoulder blades. After the implant, mice were single housed and allowed one week recovery prior to the start of experiments. […] Drugs were randomly assigned and administered s.c. as the weight of the form used at an injection volume of 0.01 mL/g body weight.
(§2) During experimental testing, mice were tested once every 1–2 weeks to avoid potential tolerance to behavioral effects of the test drugs and were tested 2–3 times in total per drug. Each test session began with a brief 5 min acclimation period to the testing arenas, followed by recording baseline body temperature using a handheld wand that was sensitive to the signals emitted from the s.c. transponder. After this, mice were injected s.c. with appropriate doses of test drug and returned to the chambers for a 30-min test session. During the dose-response sessions, locomotor activity was continuously recorded using open field chambers with photobeam arrays (Coulbourn Instruments, Holliston, MA, USA) that were modified with cylindrical inserts and custom floor panels that also allowed video recordings of each mouse to later quantify HTR activity (GoPro Hero 7 camera; 960p resolution at 120 frames per second). Videos for each mouse were analyzed post session using commercially available software used to quantify HTR as previously described.
(§3) Data analysis was performed with Prism software (version 10.1.2, GraphPad Software, Boston, MA, USA). The IC50 values from the radioligand binding assays were determined by nonlinear regression, using three independent concentration-response curves fitted to a one-site model. The Cheng-Prusoff equation was used to calculate Kᵢ values for the competing ligands. EC50 values were determined by applying nonlinear regression to concentration-response curves. Bias factors (β) were calculated based on the relative intrinsic activity approach. More detailed information can be found in the Supplementary information. Mean values for total number of HTR, change in body temperature from pre to post session (Δ°C), and total distance traveled (cm) for each drug dose were compared (p < 0.05) via Welch’s ANOVA with Dunnett’s T3 post test, comparing all doses to respective vehicle controls (0 mg/kg). Welch’s ANOVA with Dunnett’s T3 post test was also used to compare drug concentrations, but the data were compared to DOM in this case. Dose–response relationships for HTR and locomotor activities were plotted using bell-shaped curve fits, while temperature change data were plotted using four-parameter non-linear regression curve fits. The ascending phase of the HTR curve for each drug was used to determine ED50 potency values from four parameter non-linear regression fits. For combined DOM and DOAM administration, the plasma, brain tissue, and brain dialysate drug concentrations were compared using paired t-tests (p < 0.05). Ratios were compared using Holm-Sidak’s post hoc test following a repeated-measures one-way ANOVA (F (1.709, 6.835) = 70.80; p < 0.0001).
(§4) Locomotor activity and body temperature were also assessed to monitor other pharmacological effects of the drugs that may impact the HTR. […]

C57BL/6 J mice [2] = test: Body temperature change in mice (dose-response sessions); assay type: in vivo, mouse; conditions: pre to post 30-min session, mean ± SEM
Description: as §1, §2, §3, §4

h5-HT2C = molecular target: T1, h5-HT2C (Homo sapiens, UniProt P28335); test: biochemical; assay type: binding
T1 sequence (P28335 33-458): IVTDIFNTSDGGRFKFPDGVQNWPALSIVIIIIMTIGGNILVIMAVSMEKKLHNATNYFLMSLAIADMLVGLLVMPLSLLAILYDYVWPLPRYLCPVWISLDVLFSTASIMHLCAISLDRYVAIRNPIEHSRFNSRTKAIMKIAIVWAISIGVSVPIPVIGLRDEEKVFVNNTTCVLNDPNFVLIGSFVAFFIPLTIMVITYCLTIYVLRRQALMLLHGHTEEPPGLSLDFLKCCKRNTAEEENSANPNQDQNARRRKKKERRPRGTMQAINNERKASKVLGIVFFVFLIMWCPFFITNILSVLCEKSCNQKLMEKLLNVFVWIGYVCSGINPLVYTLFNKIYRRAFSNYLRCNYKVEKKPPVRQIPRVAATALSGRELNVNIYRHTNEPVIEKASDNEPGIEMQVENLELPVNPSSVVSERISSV

C57BL/6 J mice [3] = test: HTR after single fixed doses prior to brain and blood collection (20 min); assay type: in vivo, mouse; conditions: single s.c. dose: DOM 3, DOPR 1, DOBU 3, DOAM 10, 2,5-DMA 10 mg/kg
Description: In these experiments, HTR activity was monitored for 20 min, followed by cardiac puncture and decapitation. Whole blood (~ 300–500 µL per sample) was collected via cardiac puncture, placed in tubes containing 10 µL of heparin (1000 IU/mL), and immediately stored on ice until centrifugation. Blood samples were spun at 3300 rpm at 4 °C and plasma was decanted into vials on dry ice until storage at -80 °C. Whole brains were collected immediately after cardiac puncture. Brains were frozen on dry ice, weighed, then placed into 7-mL homogenizing tubes with ceramic beads, and stored at -80 °C.
as §3, with “For combined DOM and DOAM administration, the plasma, brain tissue, and brain dialysate drug concentrations were compared using paired t-tests (p < 0.05). Ratios were compared using Holm-Sidak’s post hoc test following a repeated-measures one-way ANOVA (F (1.709, 6.835) = 70.80; p < 0.0001).” left out

Compound	Ki (h5-HT2A)	HTR (count/30 min) (C57BL/6 J mice [1]; 0.03 mg/kg s.c.)	HTR (count/30 min) (C57BL/6 J mice [1]; 0.1 mg/kg s.c.)	HTR (count/30 min) (C57BL/6 J mice [1]; 0.3 mg/kg s.c.)	HTR (count/30 min) (C57BL/6 J mice [1]; 1 mg/kg s.c.)	HTR (count/30 min) (C57BL/6 J mice [1]; 3 mg/kg s.c.)	HTR (count/30 min) (C57BL/6 J mice [1]; 10 mg/kg s.c.)	HTR (count/30 min) (C57BL/6 J mice [1]; 30 mg/kg s.c.)	ED50 (C57BL/6 J mice [1]; s.c., 30 min session)	HTR in mice Emax (C57BL/6 J mice [1]; s.c., 30 min session)	HTR in mice Maximum rate (C57BL/6 J mice [1]; s.c., 30 min session)	ΔTemperature (C57BL/6 J mice [2]; 0.03 mg/kg s.c.)	ΔTemperature (C57BL/6 J mice [2]; 0.1 mg/kg s.c.)	ΔTemperature (C57BL/6 J mice [2]; 0.3 mg/kg s.c.)	ΔTemperature (C57BL/6 J mice [2]; 1 mg/kg s.c.)	ΔTemperature (C57BL/6 J mice [2]; 3 mg/kg s.c.)	ΔTemperature (C57BL/6 J mice [2]; 10 mg/kg s.c.)	ΔTemperature (C57BL/6 J mice [2]; 30 mg/kg s.c.)	Ki (h5-HT2C)	HTR (C57BL/6 J mice [3])	further results
CCc1cc(OC)c(CC(C)N)cc1OC (stereo not shown) [DOET, 4-ethyl-2,5-dimethoxyamphetamine]	12 nM	–	–	–	–	–	–	–	–	–	–	–	–	–	–	–	–	–	–	–	HTR in mice ED50 (95% CI) (mice): 0.20 (0.11–0.36) mg/kg; HTR in mice Emax (mice): 122 total HTR count
COc1cc(CC(C)N)c(OC)cc1C (stereo not shown) [DOM, 4-methyl-2,5-dimethoxyamphetamine]	66 nM	10.2 ± 1.9 count	23.4 ± 2.1 count	39.0 ± 3.3 count	90.0 ± 4.4 count	119.2 ± 9.7 count	88.0 ± 18.1 count	13.7 ± 3.9 count	0.66 mg/kg	119 total HTR count	24 HTR count/5 min	-0.1 ± 0.1 °C	0.0 ± 0.1 °C	-0.1 ± 0.1 °C	0.1 ± 0.1 °C	-0.2 ± 0.1 °C	-2.2 ± 0.8 °C	-6.5 ± 0.2 °C	–	–	Fold higher total HTR counts of DOM vs DOAM (C57BL/6 J mice [1]; mouse, in vivo): 2.6 fold; Peak HTR rate (C57BL/6 J mice [1]; s.c., 30 min session): 24 events/5 min; Time of peak HTR rate post drug administration (C57BL/6 J mice [1]; s.c., 30 min session): 5 to 10 min
CCCc1cc(OC)c(CC(C)N)cc1OC.Cl (stereo not shown) [DOPR, 4-propyl-2,5-dimethoxyamphetamine hydrochloride]	11 nM	9.7 ± 2.2 count	22.7 ± 2.8 count	53.6 ± 2.9 count	98.2 ± 2.3 count	58.0 ± 9.6 count	21.2 ± 3.0 count	–	0.42 mg/kg	98 total HTR count	20 HTR count/5 min	0.1 ± 0.1 °C	0.1 ± 0.2 °C	0.0 ± 0.2 °C	-0.1 ± 0.1 °C	-3.0 ± 0.6 °C	-4.9 ± 0.5 °C	–	47 nM	–	HTR (count/30 min) (C57BL/6 J mice [1]; 0.01 mg/kg s.c.): 6.2 ± 0.9 count; ΔTemperature (C57BL/6 J mice [2]; 0.01 mg/kg s.c.): 0.3 ± 0.2 °C; Selectivity (binding ratios) 5-HT2A/5-HT1A (h5-HT2A): 359; Selectivity (binding ratios) 5-HT2A/5-HT2B (h5-HT2A): 11; Selectivity (binding ratios) 5-HT2A/5-HT2C (h5-HT2A): 4
CCCCc1cc(OC)c(CC(C)N)cc1OC (stereo not shown) [DOBU, 4-butyl-2,5-dimethoxyamphetamine]	5.4 nM	6.0 ± 0.9 count	9.0 ± 1.7 count	12.7 ± 1.3 count	40.2 ± 2.9 count	78.7 ± 6.2 count	69.3 ± 4.7 count	17.5 ± 4.5 count	1.29 mg/kg	79 total HTR count	16 HTR count/5 min	-0.1 ± 0.1 °C	-0.1 ± 0.2 °C	0.1 ± 0.1 °C	-0.4 ± 0.1 °C	-0.3 ± 0.2 °C	-1.7 ± 0.6 °C	-5.5 ± 0.4 °C	60 nM	37 count/20 min	HTR in mice ED50 (95% CI) (mice): 1.17 mg/kg; Selectivity (binding ratios) 5-HT2A/5-HT1A (h5-HT2A; ratio of Ki values): 2506; Selectivity (binding ratios) 5-HT2A/5-HT2B (h5-HT2A; ratio of Ki values): 30; Selectivity (binding ratios) 5-HT2A/5-HT2C (h5-HT2A; ratio of Ki values): 11
CCCCCc1cc(OC)c(CC(C)N)cc1OC (stereo not shown) [DOAM, 4-amyl-2,5-dimethoxyamphetamine]	3.5 nM	7.8 ± 1.6 count	6.2 ± 1.6 count	6.5 ± 1.2 count	9.5 ± 1.2 count	28.5 ± 2.6 count	44.8 ± 3.6 count	26.0 ± 3.7 count	2.76 mg/kg	45 total HTR count	9 HTR count/5 min	0.0 ± 0.1 °C	0.0 ± 0.1 °C	-0.3 ± 0.2 °C	-0.1 ± 0.2 °C	-0.2 ± 0.1 °C	-0.2 ± 0.2 °C	-3.9 ± 0.4 °C	75 nM	30 count/20 min	Selectivity (binding ratios) 5-HT2A/5-HT1A (h5-HT2A; ratio of Ki values): 2407; Selectivity (binding ratios) 5-HT2A/5-HT2B (h5-HT2A; ratio of Ki values): 28; Selectivity (binding ratios) 5-HT2A/5-HT2C (h5-HT2A; ratio of Ki values): 21
COc1ccc(OC)c(CC(C)N)c1.Cl (stereo not shown) [2,5-DMA, 2,5-Dimethoxyamphetamine hydrochloride]	–	5.8 ± 1.9 count	6.7 ± 0.7 count	7.3 ± 1.2 count	11.7 ± 2.1 count	15.3 ± 0.6 count	23.2 ± 1.9 count	16.2 ± 5.0 count	1.39 mg/kg	23 total HTR count	5 HTR count/5 min	0.4 ± 0.1 °C	0.3 ± 0.1 °C	0.5 ± 0.1 °C	0.2 ± 0.1 °C	0.2 ± 0.2 °C	-0.9 ± 0.2 °C	-4.0 ± 0.5 °C	> 5000 nM	19 count/20 min	–
